The source of these data is patent US20230078764A1 (Yumanity Therapeutics, Inc., priority 2019, published 2023).

One experiment addresses T1, human SCD5 (Homo sapiens, UniProt Q86SK9).
T1 construct: expressed in transfected cells; host or cells: yeast strain with OLE1 deleted, plasmid-borne human SCD5 (selected in SD-Ura)
T1 sequence (Q86SK9 1-330): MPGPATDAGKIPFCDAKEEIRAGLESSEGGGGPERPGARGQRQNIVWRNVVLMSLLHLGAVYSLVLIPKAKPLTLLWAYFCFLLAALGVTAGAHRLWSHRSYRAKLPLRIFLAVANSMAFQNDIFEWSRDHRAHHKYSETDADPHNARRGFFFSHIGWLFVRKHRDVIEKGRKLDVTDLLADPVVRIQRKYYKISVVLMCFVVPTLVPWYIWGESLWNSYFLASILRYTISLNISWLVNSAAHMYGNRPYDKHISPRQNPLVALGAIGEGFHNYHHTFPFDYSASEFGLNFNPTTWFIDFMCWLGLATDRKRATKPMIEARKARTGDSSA
The experiment can be described thus: Growth inhibition of yeast strain expressing human SCD5 as sole desaturase (OLE1 deleted), OD600 readout. The following applies: yeast strain expressing human SCD5 as sole desaturase; growth (OD600) after 40 h at 30° C.; read-out: SCD5 IC50. The experiment is classed as cell-based.

For a further experiment, the target named is T2, human SCD1 (Homo sapiens, UniProt O00767).
T2 construct: expressed in transfected cells; host or cells: yeast strain with OLE1 deleted, plasmid-borne human SCD1 (selected in SD-Ura)
T2 sequence (O00767 1-359): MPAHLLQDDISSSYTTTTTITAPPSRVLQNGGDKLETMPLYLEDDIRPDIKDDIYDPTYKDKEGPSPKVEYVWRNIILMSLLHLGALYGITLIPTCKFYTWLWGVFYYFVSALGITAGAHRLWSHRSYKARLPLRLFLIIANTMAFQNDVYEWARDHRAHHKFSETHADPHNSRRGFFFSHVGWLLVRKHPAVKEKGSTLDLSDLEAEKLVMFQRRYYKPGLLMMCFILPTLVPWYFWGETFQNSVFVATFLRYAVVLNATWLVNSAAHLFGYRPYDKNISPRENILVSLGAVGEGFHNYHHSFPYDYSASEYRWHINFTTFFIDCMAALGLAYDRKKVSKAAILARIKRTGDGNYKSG
The experiment can be described thus: Growth inhibition of yeast strain expressing human SCD1 as sole desaturase (OLE1 deleted), OD600 readout. It counts as cell-based. The following applies: yeast strain expressing human SCD1 as sole desaturase; growth (OD600) after 40 h at 30° C.; read-out: SCD1 IC50.

Consider `Cn1nccc(NC(=O)c2ccc(Cc3cccc(Cl)c3)cn2)c1=O` [Compound 363], for which the figures for the IC50 on human SCD5 and on human SCD1 were 0.13 µM and 3.16 µM, respectively.

In the case of `COc1nccc(C(=O)Nc2ccc(Cc3cccc(F)c3)cn2)n1` [Compound 364], the IC50 was found to be 0.02 µM on human SCD5 and 0.71 µM at human SCD1.

With `O=C(Nc1ccc(COc2ccc(F)c(Cl)c2)cn1)c1ccc(=O)n(C2CC2)c1` [Compound 365], the IC50 came out at 4 µM on human SCD5 and 25.8 µM on human SCD1.

With `O=C(Nc1ccc(Cc2cccc(Cl)c2)cn1)c1ccc(CCO)nc1` [Compound 366], the IC50 at human SCD5 and at human SCD1 was 0.02 µM throughout.

Consider `Cn1nc(C(=O)Nc2ccc(Nc3cccc(Cl)c3)cn2)ccc1=O` [Compound 367], for which the IC50 came to 2.98 µM on human SCD5 and 25.8 µM at human SCD1.

Take `CC(O)c1ccc(C(=O)Nc2ccc(Cc3cccc(Cl)c3)cn2)cn1` (stereo not drawn) [Compound 368]: the IC50 at human SCD5 was determined as 0.24 µM; at human SCD1 it was 1.37 µM.

As to `Cn1nc(C(=O)NC2CCC(Oc3cccc(Cl)c3)CC2)ccc1=O` (stereo not drawn) [Compound 369], the IC50 was 14 µM on human SCD5 and greater than 45 µM at human SCD1.

Regarding `CN1N=C(C(=O)Nc2ccc(CC3CCCCC3)cn2)CCC1=O` [Compound 370], the IC50 is 6.65 µM at human SCD5 and greater than 45 µM on human SCD1.

For the compound `Cn1ccc(C(=O)Nc2ccc(Cc3ccc(F)c(F)c3)cn2)n1` [Compound 371], the IC50 at human SCD5 came to 0.01 µM; at human SCD1, 0.12 µM.

For `O=C(Nc1ccc(Cc2cccc(F)c2)cn1)c1ccn(C(F)(F)F)n1` [Compound 372], the results for the IC50 at human SCD5 and at human SCD1 were 0.77 µM and greater than 45 µM, respectively.

As to `CCn1cc(C(=O)Nc2ccc(Cc3cccc(Cl)c3)cn2)cn1` [Compound 373], the IC50 worked out at 0.03 µM on human SCD5 and 0.3 µM at human SCD1.

As for `CC(C)(O)c1ccc(C(=O)Nc2ccc(Cc3cccc(Cl)c3)cn2)cn1` [Compound 374], the IC50 at human SCD5 was 7.04 µM; at human SCD1 it was 38.5 µM.

On to `O=C(Nc1ccc(CC2CCCCC2)cn1)c1ccc(CO)nc1` [Compound 375], for which the IC50 at human SCD5 and at human SCD1 was 0.01 µM in each case.

`O=C(Nc1ccc(Cc2cccc(F)c2)nn1)c1ccc(=O)n(CC2CC2)n1` [Compound 376]: the IC50 on human SCD5 and on human SCD1 was greater than 45 µM in each case.

In the case of `CN1CC(C(=O)Nc2ncc(Cc3cccc(F)c3)s2)CC1=O` (stereo not drawn) [Compound 377], the IC50 on human SCD5 and on human SCD1 was greater than 45 µM throughout.

`CN1N=C(C(=O)Nc2nc(Cc3ccc(F)cc3)cs2)CCC1=O` [Compound 378]: the IC50 at human SCD5 and at human SCD1 was greater than 45 µM each time.

As for `CCn1cc(C(=O)Nc2ccc(Cc3ccc(F)cc3)nn2)ccc1=O` [Compound 379], the IC50 at human SCD5 and at human SCD1 was greater than 45 µM each time.

Turning to `CN1N=C(C(=O)Nc2ncc(Cc3ccccc3C#N)s2)CCC1=O` [Compound 380], the IC50 on human SCD5 and on human SCD1 was greater than 45 µM throughout.

Consider `CN1N=C(C(=O)NCc2ccc(Cc3cccc(F)c3)cn2)CCC1=O` [Compound 381], for which the IC50 at human SCD5 and on human SCD1 was greater than 45 µM in each case.

Consider `CN1N=C(C(=O)Nc2ccnc(Cc3cccc(Cl)c3)c2)CCC1=O` [Compound 382], for which the IC50 on human SCD5 and on human SCD1 was greater than 45 µM in each case.

Turning to `CC(C)c1ccc(Cc2ccc(NC(=O)C3=NN(C)C(=O)CC3)nc2)cc1` [Compound 383], the IC50 at human SCD5 and at human SCD1 was greater than 45 µM in each case.

Regarding `Cn1nc(C(=O)Nc2ccc(Cc3cc(F)cc(Cl)c3)nn2)ccc1=O` [Compound 384], the IC50 on human SCD5 and at human SCD1 was greater than 45 µM each time.

As for `CN1N=C(C(=O)Nc2ncc(COc3cccc(Cl)c3)s2)CCC1=O` [Compound 385], the IC50 on human SCD5 and on human SCD1 was greater than 45 µM each time.

Regarding `O=C(Nc1ncc(Cc2cccc(F)c2)s1)C1=NN(CCF)C(=O)CC1` [Compound 386], the IC50 at human SCD5 and at human SCD1 was greater than 45 µM in each case.

With `COc1cc(Cc2cccc(Cl)c2)cnc1NC(=O)C1=NN(C)C(=O)CC1` [Compound 387], the IC50 on human SCD5 and at human SCD1 was greater than 45 µM throughout.

On to `CN1N=C(C(=O)Nc2cnc(Cc3cccc(F)c3)s2)CCC1=O` [Compound 388], for which the IC50 is greater than 45 µM at human SCD5 and 17.6 µM at human SCD1.

Take `Cn1nc(C(=O)Nc2ncc(Cc3cccc(C#N)c3)s2)ccc1=O` [Compound 389]: the IC50 on human SCD5 and at human SCD1 was greater than 45 µM each time.

With `CN1N=C(C(=O)Nc2ncc(Cc3ccc4ccccc4n3)s2)CCC1=O` [Compound 390], the IC50 on human SCD5 and at human SCD1 was greater than 45 µM each time.

In the case of `CS(=O)(=O)c1cccc(C(=O)Nc2ccc(Cc3cccc(F)c3)cn2)c1` [Compound 391], the IC50 was greater than 45 µM at human SCD5 and 1.24 µM at human SCD1.

For `CN1N=C(C(=O)Nc2ccc(Cc3ccc(C4CC4)nc3)cn2)CCC1=O` [Compound 392], the IC50 on human SCD5 and on human SCD1 was greater than 45 µM each time.

As to `O=C(Nc1ccc(Cc2cccc(Cl)c2)cn1)N1CCC2(CC1)COC2` [Compound 393], the IC50 at human SCD5 and at human SCD1 was greater than 45 µM throughout.

`CC(=O)Nc1ccc(/C=C/c2cccc(Cl)c2)nn1` [Compound 394]: the IC50 on human SCD5 and at human SCD1 was greater than 45 µM in each case.

For the compound `CC(C)Cc1ccc(NC(=O)c2ccc(=O)n(C)n2)nn1` [Compound 395], the IC50 at human SCD5 and at human SCD1 was greater than 45 µM in each case.

Regarding `CN1N=C(C(=O)Nc2ccc(COC3(C)CC3)cn2)CCC1=O` [Compound 396], the IC50 on human SCD5 and on human SCD1 was greater than 45 µM in each case.

Consider `CN1N=C(CNc2ccc(Cc3cccc(F)c3)cn2)CCC1=O` [Compound 397], for which the IC50 on human SCD5 and on human SCD1 was greater than 45 µM in each case.

For the compound `CN1N=C(C(=O)Nc2ncc(Cc3cccnc3)s2)CCC1=O` [Compound 398], the concentration for half-maximal inhibition (IC50) on human SCD5 and on human SCD1 was greater than 45 µM each time.

For `CN1N=C(C(=O)Nc2ncc(Cc3cccc(F)c3)o2)CCC1=O` [Compound 399], the IC50 on human SCD5 and on human SCD1 was greater than 45 µM each time.

Consider `CN1C(=O)CCC1C(=O)Nc1ncc(Cc2cccc(F)c2)s1` (stereo not drawn) [Compound 400], for which the IC50 at human SCD5 and on human SCD1 was greater than 45 µM throughout.

As to `CN1N=C(C(=O)Nc2ccc(Cc3cccc(F)c3)nc2)CCC1=O` [Compound 401], the IC50 at human SCD5 and on human SCD1 was greater than 45 µM in each case.

As for `Cc1cnc(Cc2ccc(NC(=O)C3=NN(C)C(=O)CC3)nc2)s1` [Compound 402], the IC50 on human SCD5 and at human SCD1 was greater than 45 µM each time.

On to `CC(=O)C1CN(C(=O)Nc2ccc(Cc3cccc(Cl)c3)cn2)C1` [Compound 403], for which the IC50 at human SCD5 and at human SCD1 was greater than 45 µM in each case.

Regarding `COc1ccc(C(=O)Nc2ncc(Cc3cccc(F)c3)s2)nn1` [Compound 404], the IC50 at human SCD5 and on human SCD1 was greater than 45 µM each time.

Regarding `CN1N=C(C(=O)Nc2cnn(Cc3cccc(Cl)c3)c2)CCC1=O` [Compound 405], the IC50 at human SCD5 and on human SCD1 was greater than 45 µM in each case.

`CN1N=C(C(=O)Nc2nc(Cc3cccc(F)c3)cs2)CCC1=O` [Compound 406]: the IC50 at human SCD5 and at human SCD1 was greater than 45 µM throughout.

Take `CN1N=C(C(=O)Nc2nnc(Cc3cccc(Cl)c3)[nH]2)CCC1=O` [Compound 407]: the IC50 on human SCD5 and at human SCD1 was greater than 45 µM in each case.

For the compound `CN1N=C(C(=O)Nc2nc(Cc3cccc(F)c3)ns2)CCC1=O` [Compound 408], the IC50 on human SCD5 and at human SCD1 was greater than 45 µM throughout.

Turning to `CN1N=C(C(=O)Nc2nnc(Cc3cccc(Cl)c3)o2)CCC1=O` [Compound 409], the IC50 at human SCD5 and at human SCD1 was greater than 45 µM each time.

As for `CCn1cc(C(=O)Nc2ccc(Cc3cccc(F)c3)nn2)ccc1=O` [Compound 410], the IC50 at human SCD5 and on human SCD1 was greater than 45 µM throughout.

For the compound `Cn1nc(C(=O)NCc2ccc(Cc3cccc(F)c3)cn2)ccc1=O` [Compound 411], the IC50 on human SCD5 and at human SCD1 was greater than 45 µM in each case.

For the compound `CN1N=C(C(=O)Nc2ccc(CN3CCC(C)(C)CC3)cn2)CCC1=O` [Compound 412], the IC50 at human SCD5 and at human SCD1 was greater than 45 µM throughout.

In the case of `CN1N=C(C(=O)Nc2ncc(C(=O)c3cccc(F)c3)s2)CCC1=O` [Compound 413], the IC50 on human SCD5 and on human SCD1 was greater than 45 µM in each case.

Take `CCN1N=C(C(=O)Nc2ncc(Cc3cccc(F)c3)s2)CCC1=O` [Compound 414]: the figures for the IC50 on human SCD5 and at human SCD1 were greater than 45 µM and 25 µM, respectively.

Consider `O=C(Nc1ccc(Cc2cccc(Cl)c2)cn1)c1ccc2nccn2n1` [Compound 415], for which the IC50 on human SCD5 and on human SCD1 was greater than 45 µM in each case.

For the compound `CN1N=C(C(=O)Nc2ncc(Oc3ccccc3Cl)s2)CCC1=O` [Compound 416], the IC50 at human SCD5 and at human SCD1 was greater than 45 µM throughout.

In general, IC50 refers to the point on the concentration scale where inhibition reaches its midpoint.
